Measured values from the NIST ThermoML archive (doi:10.1021/je100945u).
Numbers after ± are expanded uncertainties.

Details: Liquid, Vibrating tube method

CCn1cc[n+](C)c1.O=S(=O)([N-]S(=O)(=O)C(F)(F)F)C(F)(F)F
Details | mass density [kg/m3]
283.15 K, 101.33 kPa | 1533.48 ± 0.71
283.19 K, 1750 kPa | 1533.9 ± 2.5
283.19 K, 5136 kPa | 1536.34 ± 2.6
283.19 K, 49993 kPa | 1565.54 ± 3
283.19 K, 60272 kPa | 1571.51 ± 3.1
283.19 K, 69996 kPa | 1577 ± 3.3
283.19 K, 80287 kPa | 1582.65 ± 3.5
283.19 K, 89994 kPa | 1587.84 ± 3.6
283.2 K, 10046 kPa | 1539.78 ± 2.6
283.2 K, 29957 kPa | 1553.14 ± 2.8
283.2 K, 40033 kPa | 1559.47 ± 2.9
283.21 K, 20030 kPa | 1546.57 ± 2.7
283.21 K, 100034 kPa | 1593.02 ± 3.8
293.14 K, 99755 kPa | 1584.89 ± 3.7
293.15 K, 101.33 kPa | 1523.37 ± 0.7
293.15 K, 10202 kPa | 1530.8 ± 2.6
293.15 K, 89934 kPa | 1579.84 ± 3.6
293.16 K, 20787 kPa | 1538.14 ± 2.7
293.16 K, 59685 kPa | 1562.92 ± 3.1
293.16 K, 69993 kPa | 1568.91 ± 3.3
293.17 K, 1027 kPa | 1524.24 ± 2.5
293.17 K, 4981 kPa | 1527.1 ± 2.5
293.17 K, 29994 kPa | 1544.31 ± 2.8
293.17 K, 49993 kPa | 1557.07 ± 3
293.17 K, 79912 kPa | 1574.47 ± 3.4
293.19 K, 39872 kPa | 1550.73 ± 2.9
298.12 K, 19701 kPa | 1532.45 ± 2.6
298.12 K, 29779 kPa | 1539.35 ± 2.8
298.13 K, 39926 kPa | 1546.05 ± 2.9
298.14 K, 1156 kPa | 1519.1 ± 2.5
298.15 K, 101.33 kPa | 1518.34 ± 0.69
298.15 K, 49997 kPa | 1552.45 ± 3
298.17 K, 5194 kPa | 1522.08 ± 2.5
298.18 K, 90001 kPa | 1575.41 ± 3.6
298.18 K, 99950 kPa | 1580.52 ± 3.7
298.19 K, 10066 kPa | 1525.62 ± 2.6
298.19 K, 69997 kPa | 1564.42 ± 3.2
298.19 K, 79938 kPa | 1570 ± 3.4
298.2 K, 59613 kPa | 1558.32 ± 3.1
313.15 K, 101.33 kPa | 1503.33 ± 0.68
313.15 K, 10156 kPa | 1510.84 ± 2.5
313.15 K, 29996 kPa | 1525.09 ± 2.7
313.15 K, 39897 kPa | 1531.84 ± 2.8
313.15 K, 49994 kPa | 1538.48 ± 2.9
313.15 K, 60124 kPa | 1544.89 ± 3.1
313.15 K, 69993 kPa | 1550.88 ± 3.2
313.16 K, 1963 kPa | 1504.67 ± 2.5
313.16 K, 19902 kPa | 1517.96 ± 2.6
313.16 K, 80342 kPa | 1556.93 ± 3.4
313.16 K, 89994 kPa | 1562.32 ± 3.5
313.17 K, 5147 kPa | 1507.08 ± 2.5
313.17 K, 100087 kPa | 1567.72 ± 3.7
333.13 K, 80064 kPa | 1539.77 ± 3.3
333.13 K, 89994 kPa | 1545.53 ± 3.4
333.14 K, 69997 kPa | 1533.66 ± 3.1
333.14 K, 99911 kPa | 1551 ± 3.6
333.15 K, 101.33 kPa | 1483.53 ± 0.66
333.15 K, 60111 kPa | 1527.39 ± 3
333.16 K, 49997 kPa | 1520.69 ± 2.9
333.17 K, 2359 kPa | 1485.34 ± 2.5
333.17 K, 5331 kPa | 1487.73 ± 2.5
333.17 K, 40159 kPa | 1513.9 ± 2.8
333.18 K, 30001 kPa | 1506.61 ± 2.7
333.19 K, 9791 kPa | 1491.26 ± 2.5
333.19 K, 18829 kPa | 1498.27 ± 2.6
353.15 K, 101.33 kPa | 1463.97 ± 0.64
353.18 K, 2168 kPa | 1465.71 ± 2.4
353.18 K, 5223 kPa | 1468.32 ± 2.4
353.18 K, 69993 kPa | 1516.73 ± 3.1
353.18 K, 80056 kPa | 1523.09 ± 3.2
353.18 K, 90001 kPa | 1529.06 ± 3.4
353.19 K, 9673 kPa | 1472.06 ± 2.5
353.19 K, 20093 kPa | 1480.58 ± 2.5
353.19 K, 29997 kPa | 1488.37 ± 2.6
353.19 K, 39951 kPa | 1495.89 ± 2.7
353.19 K, 49979 kPa | 1503.15 ± 2.8
353.19 K, 60184 kPa | 1510.23 ± 3
353.19 K, 99944 kPa | 1534.73 ± 3.5
363.15 K, 101.33 kPa | 1454.28 ± 0.63
373.12 K, 724 kPa | 1445.01 ± 2.4
373.14 K, 4935 kPa | 1448.84 ± 2.4
373.14 K, 60448 kPa | 1493.21 ± 2.9
373.14 K, 69979 kPa | 1499.69 ± 3
373.14 K, 79868 kPa | 1506.16 ± 3.2
373.14 K, 89963 kPa | 1512.49 ± 3.3
373.14 K, 99920 kPa | 1518.52 ± 3.5
373.16 K, 30001 kPa | 1470.33 ± 2.6
373.16 K, 39858 kPa | 1478.08 ± 2.7
373.16 K, 49997 kPa | 1485.67 ± 2.8
373.17 K, 10147 kPa | 1453.42 ± 2.4
373.18 K, 19879 kPa | 1461.85 ± 2.5
